Laboratory results as given in publication PMC4918903 (Journal of natural products, 2008).
≈ marks a conversion by molar mass, not a printed value. Entries after “also recorded” stand apart in the source; their conditions may differ.

Experiments:
[1] = tested on: Leishmania donovani promastigotes; test: Antileishmanial activity, Almar Blue assay; format: cell-based; conditions: for IC50: read-out: L. donovani IC50
[2] = tested on: P. berghei (sensitive strain); test: In vivo antimalarial activity in rodent malaria model; conditions: oral; for toxicity in vivo (in words): 30 mg/kg/day x 3 doses; for cure: mice without parasitemia up to day 28 post-infection
P. falciparum (D6 clone) = test: In vitro antimalarial activity, chloroquine-sensitive D6 clone; format: cell-based; conditions: Plasmodium falciparum, D6, read-out: P. falciparum (D6 clone) IC50
Candida albicans = test: In vitro antifungal activity; format: cell-based
Cryptococcus neoformans = test: In vitro antifungal activity; format: cell-based; conditions: for IC50: Cryptococcus neoformans, read-out: C. neoformans IC50
[3] = tested on: Mycobacterium intracellulare; test: In vitro antibacterial activity; format: cell-based
P. bergei-infected mice = conditions: single intraperitoneal and oral administration; cited from earlier work
[4] = tested on: Vero cell line (monkey kidney fibroblast cells); test: Cytotoxicity to mammalian Vero cells; format: cell-based; conditions: highest tested concentration 4700 ng/mL
Stability in solvents = format: physicochemical
KB carcinoma cell line = conditions: replacement of hydroxyl with methoxy at 8-position; cited from earlier work
LoVo = conditions: versus 8-hydroxy parent; cited from earlier work
HSV-II = conditions: cited from earlier work
[5] = tested on: methicillin-resistant S. aureus (MRSA); test: In vitro antibacterial activity; format: cell-based
P. falciparum (W2 clone) = test: In vitro antimalarial activity, chloroquine-resistant W2 clone; format: cell-based; conditions: Plasmodium falciparum, W2, read-out: P. falciparum (W2 clone) IC50

Q: Which IC50 [1] does the source give for `N=C(N)c1ccc(OCCCCCOc2ccc(C(=N)N)cc2)cc1` [pentamidine, reference compound] here?
A: Its IC50 is 2.6 µg/mL (≈ 7.64 µM).

Q: What about the IC90 ([1]; read-out: L. donovani IC90) of the same molecule?
A: The IC90 was 6.9 µg/mL (≈ 20.3 µM).

Q: Which “toxicity in vivo (in words)” value [2] does the source give for `Oc1cccc2c1[nH]c1c(C3=C[C@@]4(O)CC/C=C\CCCCN5CC[C@@H]3[C@]3(CC6/C=C\CCCCN6[C@H]34)C5)nccc12` (stereo partly drawn) [Compound 2, 8-hydroxymanzamine A] here?
A: The value was “not toxic”.

Q: Which IC50 (P. falciparum (D6 clone)) does the source give for `O[C@]12C=C(c3nccc4c3[nH]c3ccccc34)[C@@H]3CCN(CCCC/C=C\CC1)C[C@@]31C[C@@H]3/C=C\CCCCN3[C@H]12` [Compound 1, manzamine A] here?
A: The IC50 was 0.0042 µg/mL (≈ 0.00765 µM).

Q: What about the IC50 [1] of the same molecule?
A: Its IC50 is 0.9 µg/mL (≈ 1.64 µM).

Q: And the IC50 (Candida albicans; Candida albicans, read-out: C. albicans IC50)?
A: Its IC50 is 2 µg/mL (≈ 3.64 µM).

Q: And the IC50 (Cryptococcus neoformans)?
A: The IC50 was 3 µg/mL (≈ 5.47 µM).

Q: And the IC50 ([3]; Mycobacterium intracellulare, read-out: M. intracellulare IC50)?
A: Its IC50 is 0.35 µg/mL (≈ 0.638 µM).

Q: What about the “prolonged survival of infected mice” value (P. bergei-infected mice) of the same molecule?
A: The value was “more than 10 days”.

Q: And the cure ([2]; 10 mg/kg x 3 days)?
A: Its cure is 1/4.

Q: What about the “toxicity in vivo (in words)” value [2] of the same molecule?
A: Its value is “shows toxicity”.

Q: Which results are given for `CC(=O)Oc1cccc2c1[nH]c1c(C3=C[C@@]4(O)CC/C=C\CCCCN5CC[C@@H]3[C@]3(C[C@@H]6/C=C\CCCCN6[C@H]34)C5)nccc12` [Compound 3, 8-acetoxymanzamine A]?
A: toxicity to Vero cell line (in words) [4]: exhibited toxicity; hydrolysis in DMSO and IPA (in words) (Stability in solvents; DMSO and IPA): negligible; formation of hydroxyl moiety 2 in MeCN and DMSO (in words) (Stability in solvents; MeCN and DMSO): no detectable trace; hydrolysis to 2 in MeOH (Stability in solvents; MeOH, 15 h, LC-MS): 98%; cure ([2]; 10 mg/kg x 3 days): 0/4; cure ([2]; 30 mg/kg x 3 days): 0/3; toxicity in vivo (in words) [2]: higher toxicity; also recorded: toxic

Q: Which “toxicity to Vero cell line (in words)” value [4] does the source give for `COc1cccc2c1[nH]c1c(C3=C[C@@]4(O)CC/C=C\CCCCN5CC[C@@H]3[C@]3(C[C@@H]6/C=C\CCCCN6[C@H]34)C5)nccc12` [Compound 5, 8-methoxymanzamine A] here?
A: Its value is “exhibited toxicity”.

Q: What about the “stability in different solvents (in words)” value (Stability in solvents; different solvents, two months, LC-MS) of the same molecule?
A: The value was “no expected hydrolysis to compound 2 was observed”.

Q: And the “toxicity in KB carcinoma cell line versus 8-hydroxy parent (in words)” value (KB carcinoma cell line)?
A: The value was “reduced the toxicity”.

Q: What about the “cytotoxicity against LoVo (in words)” value (LoVo) of the same molecule?
A: The value was “cytotoxity increased”.

Q: And the “activity against HSV-II (in words)” value (HSV-II)?
A: Its value is “no activity”.

Q: Which “toxicity to Vero cell line (in words)” value [4] does the source give for `CC(=O)Oc1cccc2c1[nH]c1c(C3=C[C@@]4(OC(C)=O)CC/C=C\CCCCN5CC[C@@H]3[C@]3(C[C@@H]6/C=C\CCCCN6[C@H]34)C5)nccc12` [Compound 4, 8,12-diacetoxymanzamine A] here?
A: The value was “did not show cytotoxicity”.

Q: And the “activity against C. albicans (in words)” value (Candida albicans)?
A: Its value is “inactive”.

Q: And the “activity against C. neoformans (in words)” value (Cryptococcus neoformans)?
A: Its value is “inactive”.

Q: And the “activity against MRSA (in words)” value [5]?
A: Its value is “moderate activity”.

Q: What about the “activity against M. intracellulare (in words)” value [3] of the same molecule?
A: Its value is “moderate activity”.

Q: What about the “stability in CDCl3 and CD2Cl2 (in words)” value (Stability in solvents; CDCl3 and CD2Cl2, 24 h, 1H NMR) of the same molecule?
A: Its value is “decomposition”.

Q: And the “stability in benzene (in words)” value (Stability in solvents; benzene, a few days of 1H NMR acquisition)?
A: Its value is “no changes were observed”.

Q: What about the “stability in several tested solvents (in words)” value (Stability in solvents; several tested solvents with the exception of benzene) of the same molecule?
A: The value was “unstable and easily degraded”.

Q: What does the source list for `Oc1cccc2c1[nH]c1c(C3=C[C@@]4(O)CC/C=C\CCCCN5CC[C@@H]3[C@]3(C[C@@H]6/C=C\CCCCN6[C@H]34)C5)nccc12` [Compound 2, 8-hydroxymanzamine A]?
A: IC50 (P. falciparum (D6 clone)): 0.006 µg/mL (≈ 0.0106 µM); IC50 (P. falciparum (W2 clone)): 0.008 µg/mL (≈ 0.0142 µM); IC50 [1]: 6.2 µg/mL (≈ 11 µM); MIC (Candida albicans; Candida albicans, read-out: C. albicans MIC): 20 µg/mL (≈ 35.4 µM); IC50 (Cryptococcus neoformans): 3 µg/mL (≈ 5.31 µM); prolonged survival of infected mice (P. bergei-infected mice): more than 10 days; cure ([2]; 10 mg/kg x 3 days): 0/4; cure ([2]; 30 mg/kg x 3 days): 0/4

Q: Which results are given for `CCN(CC)CCCC(C)Nc1ccnc2cc(Cl)ccc12` (stereo not drawn) [chloroquine, reference compound]?
A: IC50 (P. falciparum (D6 clone)): 0.014 µg/mL (≈ 0.0438 µM); IC50 (P. falciparum (W2 clone)): 0.155 µg/mL (≈ 0.485 µM); % suppression in parasitemia (% activity) day 7 ([2]; 50 mg/kg x 3 days, vehicle 0.1 N HCl, day 7 post-infection): 100%; % suppression in parasitemia (% activity) day 10 ([2]; 50 mg/kg x 3 days, vehicle 0.1 N HCl, day 10 post-infection): 100%; % suppression in parasitemia (% activity) day 14 ([2]; 50 mg/kg x 3 days, vehicle 0.1 N HCl, day 14 post-infection): 100%; cure ([2]; 50 mg/kg x 3 days): 3/4
